In patent publication US20020132319A1, “Peptide mutant of human ERAB or HADH2, its X-ray crystal structure, and materials and method for identification of inhibitors thereof” (priority 2000, published 2002):
“Also recorded” adds a separate entry of the source.

Key:
ERAB or HADH2 = target: T1, ERAB or HADH2 (Homo sapiens, UniProt Q99714); experiment: Spectrophotometric ERAB or HADH2 inhibition assay (NADH, acetoacetyl-CoA as substrate); type: biochemical
T1 construct: made in house; host or cells: E. coli (plasmid pMGH4)
T1 sequence (Q99714 1-261): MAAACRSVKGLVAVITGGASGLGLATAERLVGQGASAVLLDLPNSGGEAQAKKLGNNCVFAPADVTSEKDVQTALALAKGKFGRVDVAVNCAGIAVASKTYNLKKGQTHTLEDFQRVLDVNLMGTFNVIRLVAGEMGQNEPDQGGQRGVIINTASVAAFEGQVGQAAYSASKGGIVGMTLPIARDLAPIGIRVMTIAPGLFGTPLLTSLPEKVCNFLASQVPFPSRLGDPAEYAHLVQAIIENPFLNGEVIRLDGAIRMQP
Procedure: The IC50 value for Compound I was determined spectrophotometrically by monitoring the […] of NADH to NAD^+ with acetoacetyl-CoA as substrate. Enzyme (2.5 nM) was preincubated with inhibitor for 400 seconds at 30° C. in the presence of 36 uM NADH, 25 mM MOPS, pH 7.5, 250 mM NaCl, 2% (v/v) DMSO, and 2.5 mM TCEP. The reaction was initiated by addition of substrate (38 μM). Reduction of NADH was monitored at […]. The IC50 value was determined by non-linear regression analysis using KaleidaGraph (obtained from Synergy Software, Reading, Pa.).

[1] = target: Streptomycetes hydrogenans 3α-20β- hydroxysteroid dehydrogenase (Streptomyces exfoliatus, UniProt P19992); experiment: Inhibition of related SDR family member (Streptomyces enzyme); type: biochemical; details: at concentrations as high as 100 μM
[2] = target: E. coli 17β-hydroxysteroid dehydrogenase (Escherichia coli, UniProt P0AET8); experiment: Inhibition of related SDR family member (E. coli enzyme); type: biochemical; details: at concentrations as high as 100 μM
wild-type ERAB or HADH2 [3] = target: T2, wild-type ERAB or HADH2 (Homo sapiens, UniProt Q99714); experiment: Isothermal titration calorimetry, inhibitor binding experiments
T2 construct: made in house; host or cells: E. coli (plasmid pMGH4; spontaneous mutant of strain BL21(DE3), 'B121 (DE3)' [sic])
T2 sequence (Q99714 1-261): T1 sequence (Q99714 1-261)
Procedure: FIG. 5 is a plot of integrated-binding data obtained for a calorimetric titration of wild-type ERAB or HADH2 into Compound I in the presence and absence of cofactor. Wild-type ERAB or HADH2 (415 μM) was titrated into 20 μM inhibitor in the presence and absence of 20 μM cofactor at 15° C. The closed symbols represent the integrated-data points for 10 μL injections of ERAB or HADH2 into inhibitor in the absence of cofactor (♦); in the presence of NAD^+ (●); and in the presence of NADH (▪). The open symbols represent the integrated data points for the corresponding control titrations of ERAB or HADH2 into buffer (Δ); in the presence of NAD^+ (∘); and in the presence of NADH (□). Lines connecting the data points have been added for visual clarity.
(§1) Titrations described herein were performed with an MCS microcalorimeter (obtained from MicroCal, Inc., Northampton, […].).
(§2) For the inhibitor binding experiments, the titrations were performed in 25 mM MOPS (pH 7.5), 125 mM NaCl, 10% glycerol, 2.0% DMSO, 0.5 mM TCEP (Tri(2-carboxyethyl)phosphine), 0.1 mM EDTA at 15° C. The syringe contained 415 μM wild-type ERAB or HADH2 and the cell contained either 20 μM inhibitor, 20 μM cofactor, or 20 μM each of inhibitor and cofactor. After a preliminary 20 μL injection, 12 injections of 10.0 μL each were made at 4 minute intervals. Dilution control titrations of buffer into buffer, protein into buffer, and buffer into inhibitor, cofactor and inhibitor/cofactor mixture were also performed. For the cofactor binding experiments, the titrations were performed in 50 mM MOPS (3-(N-morpholino) propanesulfonic acid, pH 7.5), 250 mM NaCl, 10% glycerol, 2.0% DMSO, 10 mM TCEP at 15° C.

wild-type ERAB or HADH2 [4] = target: T2, wild-type ERAB or HADH2; experiment: Isothermal titration calorimetry, cofactor binding experiments; details: 2.68 mM cofactor titrated into 127 μM wild-type ERAB or HADH2, 15° C.; read-out: Kd for NAD+
Procedure: as §1, §2
For the NADH titration, the syringe contained 700 μM cofactor and the cell contained 35 μM wild type ERAB or HADH2. For the NAD^+ titration, the syringe contained 2.68 mM cofactor and the cell contained 127 μM wild-type ERAB or HADH2.

Chain of E. coli 17β-hydroxysteroid dehydrogenase (P0AET8 whole entry): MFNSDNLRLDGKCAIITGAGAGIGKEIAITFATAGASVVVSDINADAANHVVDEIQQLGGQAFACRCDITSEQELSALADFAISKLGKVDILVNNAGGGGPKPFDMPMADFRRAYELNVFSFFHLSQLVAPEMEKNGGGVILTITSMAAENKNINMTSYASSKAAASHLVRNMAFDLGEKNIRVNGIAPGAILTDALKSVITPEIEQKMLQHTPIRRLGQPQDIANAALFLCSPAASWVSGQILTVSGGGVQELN
Chain of Streptomycetes hydrogenans 3α-20β- hydroxysteroid dehydrogenase (P19992 whole entry): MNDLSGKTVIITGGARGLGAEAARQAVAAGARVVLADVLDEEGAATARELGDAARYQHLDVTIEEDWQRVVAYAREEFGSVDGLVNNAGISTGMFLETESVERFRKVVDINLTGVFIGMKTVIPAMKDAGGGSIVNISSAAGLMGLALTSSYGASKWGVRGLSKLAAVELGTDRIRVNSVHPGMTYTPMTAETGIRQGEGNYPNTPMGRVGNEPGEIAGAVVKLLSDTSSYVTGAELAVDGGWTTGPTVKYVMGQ

| Compound | IC50 against ERAB (ERAB or HADH2; Compound I made according to Scheme 1) | average IC50 against ERAB or HADH2 (ERAB or HADH2; Compound I made according to Scheme 2, racemic mixture) | inhibition of Streptomycetes hydrogenans 3α-20β-hydroxysteroid dehydrogenase [1] | inhibition of E. coli 17β-hydroxysteroid dehydrogenase [2] | ITC binding to ERAB or HADH2 in the absence of cofactor (wild-type ERAB or HADH2 [3]; ERAB 415 μM titrated into 20 μM inhibitor alone, 15° C.) | ITC binding to ERAB or HADH2 in the presence of NAD+ (wild-type ERAB or HADH2 [3]; ERAB titrated into equimolar 20 μM inhibitor and NAD+, 15° C.) | ITC binding to ERAB or HADH2 in the presence of NADH (wild-type ERAB or HADH2 [3]; ERAB titrated into equimolar 20 μM inhibitor and NADH, 15° C.) | binding to ERAB or HADH2 more potent with NAD+ than in the absence of NAD+ (wild-type ERAB or HADH2 [3]; with NAD+ versus absence of NAD+) | Kd (wild-type ERAB or HADH2 [4]) | ITC binding when ERAB or HADH2 titrated into cofactor alone (wild-type ERAB or HADH2 [3]; ERAB 415 μM titrated into 20 μM NAD+ alone, 15° C.) |
| --- | --- | --- | --- | --- | --- | --- | --- | --- | --- | --- |
| O=C(C(c1ccccc1)n1cnc2[nH]ncc2c1=S)N1CCCCCC1 (racemic) [Compound I, 1-azepan-1-yl-2-phenyl-2-(4-thioxo-1,4-dihydro-pyrazolo[3,4-d]pyrimidin-5-yl)-ethanone] | 0.088 µM | 0.092 ± 0.005 µM | no detectable inhibition | no detectable inhibition | binds weakly; also recorded: No binding was detected | tight-binding curve | binds weakly | approximately 1000 fold |  |  |
| NC(=O)c1ccc[n+]([C@@H]2O[C@H](COP(=O)([O-])OP(=O)(O)OC[C@H]3O[C@@H](n4cnc5c(N)ncnc54)[C@H](O)[C@@H]3O)[C@@H](O)[C@H]2O)c1 [NAD^+, reference compound] |  |  |  |  |  |  |  |  | ~500 µM | No binding was detected |
